In US10168342B2, “Lipid probes and uses thereof” (THE SCRIPPS RESEARCH INSTITUTE, priority 2015, dated 2019) one finds Times observed data, which are given here for 1 molecule.

What all share (test): isoTOP-ABPP mapping of AEA-DA-modified peptides in Neuro2a cells
Common to all, as to type: cell-based

Assay [1] addresses T1, AEA-DA-modified peptides in Neuro2a cells (Mus musculus, UniProt Q8BWM0).
T1 construct: endogenous in cells; host or cells: Neuro2a
The following applies: AEA-DA-modified peptide PTGES2 Q8BWM0 269-279, SEQ ID NO 92; probe 100 μM, 12 replicates. As to the method:
(§1) Experiments were performed as described above using the AEA-DA probe (100 μM) in 3.0 mL of DMEM (serum-free) and Neuro2A cells without (twelve replicates; ten biological; two technical). For the ligand competition study, cells were treated with the AEA-DA probe (50 μM) and DMSO or MJN228 (50 μM) treatment. Cells were harvested and processed as described above. Whole cell lysates (500 μL at 1.5 mg/mL) were processed for MS analysis using the previously described isoTOPABPP protocol (Speers and Cravatt, 2005). In brief, for global mapping of AEA-DA-modified peptides, proteomes were split into two fractions, which were subjected to click chemistry conditions with either light or heavy isotopically labeled TEV-tags. For the […] competition study, proteomes were subjected to click chemistry conditions with either light (DMSO) or heavy (MJN228-treated) TEV-tags. Light and heavy-tagged proteomes in each experiment were then combined, and, following enrichment of probe-labeled targets using streptavidin beads, proteins were digested on-bead with trypsin and remaining immobilized peptides released with a subsequent TEV protease digestion. The resulting probe-modified peptides were collected for MS analysis, which was performed as described above with differences in the salt bumps applied in the chromatographic gradients which were 0%, 30%, 60%, 90% and 100% NH4OAc (500 mM). The protein identification searches of the MS data were performed using the same software packages described above with the following changes applied to identify the peptides modified with AEA-DA and the cleaved TEV tag. All amino acids were considered as possible residues for modification. To facilitate the computational searches, sets of up to 3 amino acids were searched using ProLuCID and filtered with DTASelect as described above. The mass of the modification used to search for probe-modified peptides was +727.4745 m/z for the probe plus the light TEV-tag and +733.4831 m/z for the heavy counterpart. […] For global mapping experiments, AEA-DA-modified peptides were expected to show a ratio of “heavy” and “light” signals of ˜1.0 (0.5<ratio<2.0) and were required to have been detected in at least two of the twelve replicate experiments.
(§2) In some embodiments, the ligands are tested for their interaction to NUCB1 in cells. […] MJN228 inhibited lipid probe binding to NUCB1 at concentrations as low as 10 μM, with near-maximal inhibition observed at ˜25 μM (FIG. 16A). […] The site of arachidonoyl probe (and MJN228) binding to NUCB1 was mapped in cells, which was accomplished by treating Neuro2A cells with the AEA-DA probe (50 μM) in the presence of DMSO or MJN228 (50 μM), followed by UV irradiation, CuAAC conjugation of AEA-DA-labeled proteins to isotopically light (DMSO-treated cells) and heavy (MJN228-treated cells) azide-biotin tags featuring a TEV protease-cleavable linker, and LCMS/MS analysis using a previously described platform, termed isoTOP-ABPP, for mapping probe-modified peptides in proteomes (Speers and Cravatt, 2005). A AEA-DA labeled peptide was identified for NUCB1 (aa 53-68) in DMSO-treated cells and the signals for this peptide were substantially (>5-fold) reduced in MJN228-treated cells (FIG. 15C). This AEA-DA labeling site was confirmed using recombinant, purified hNUCB1 and tandem MS analysis which narrowed down the site of probe modification to His67 (FIGS. 16B and 16C).

The target of assay [2] is T2, AEA-DA-modified peptides in Neuro2a cells (Mus musculus, UniProt Q99M71).
T2 construct: endogenous in cells; host or cells: Neuro2a
The following applies: AEA-DA-modified peptide EPDR1 Q99M71 171-182, SEQ ID NO 38; probe 100 μM, 12 replicates. The method, then: as §1, §2

For assay [3], the target named is T3, AEA-DA-modified peptides in Neuro2a cells (Mus musculus, UniProt Q9Z0V8).
T3 construct: endogenous in cells; host or cells: Neuro2a
The following applies: probe 100 μM, 12 replicates. As to the method:
as §1, §2

The target of assay [4] is T4, AEA-DA-modified peptides in Neuro2a cells (Mus musculus, UniProt P08113).
T4 construct: endogenous in cells; host or cells: Neuro2a
Particulars: AEA-DA-modified peptide HSP90B1 P08113 664-672, SEQ ID NO 51; probe 100 μM, 12 replicates. The method, then:
as §1, §2

Assay [5] has as its target T5, AEA-DA-modified peptides in Neuro2a cells (Mus musculus, UniProt P36536).
T5 construct: endogenous in cells; host or cells: Neuro2a
Particulars: AEA-DA-modified peptide SAR1A P36536 192-199, SEQ ID NO 95; probe 100 μM, 12 replicates. The method, then: as §1, §2

Assay [6] addresses T6, AEA-DA-modified peptides in Neuro2a cells (Mus musculus, UniProt Q8BKE6).
T6 construct: endogenous in cells; host or cells: Neuro2a
The following applies: AEA-DA-modified peptide CYP20A1 Q8BKE6 397-414, SEQ ID NO 29; probe 100 μM, 12 replicates. The method, then: as §1, §2

The target of assay [7] is T7, AEA-DA-modified peptides in Neuro2a cells (Mus musculus, UniProt Q8R0X7).
T7 construct: endogenous in cells; host or cells: Neuro2a
The following applies: probe 100 μM, 12 replicates. As to the method: as §1, §2

In assay [8] the target is T8, AEA-DA-modified peptides in Neuro2a cells (Mus musculus, UniProt P67778).
T8 construct: endogenous in cells; host or cells: Neuro2a
Particulars: AEA-DA-modified peptide PHB P67778 5-12, SEQ ID NO 85; probe 100 μM, 12 replicates. As to the method: as §1, §2

The target of assay [9] is T9, AEA-DA-modified peptides in Neuro2a cells (Mus musculus, UniProt Q78ZA7).
T9 construct: endogenous in cells; host or cells: Neuro2a
The following applies: AEA-DA-modified peptide NAP1L4 Q78ZA7 84-94, SEQ ID NO 66; probe 100 μM, 12 replicates. The method, then: as §1, §2

Assay [10] concerns the target T10, AEA-DA-modified peptides in Neuro2a cells (Mus musculus, UniProt Q9DC61).
T10 construct: endogenous in cells; host or cells: Neuro2a
Particulars: AEA-DA-modified peptide PMPCA Q9DC61 428-451, SEQ ID NO 88; probe 100 μM, 12 replicates. The method, then:
as §1, §2

Assay [11] addresses T11, AEA-DA-modified peptides in Neuro2a cells (Mus musculus, UniProt Q9CPU0).
T11 construct: endogenous in cells; host or cells: Neuro2a
Particulars: AEA-DA-modified peptide GLO1 Q9CPU0 160-180, SEQ ID NO 42; probe 100 μM, 12 replicates. As to the method:
as §1, §2

T3 sequence (Q9Z0V8 whole entry): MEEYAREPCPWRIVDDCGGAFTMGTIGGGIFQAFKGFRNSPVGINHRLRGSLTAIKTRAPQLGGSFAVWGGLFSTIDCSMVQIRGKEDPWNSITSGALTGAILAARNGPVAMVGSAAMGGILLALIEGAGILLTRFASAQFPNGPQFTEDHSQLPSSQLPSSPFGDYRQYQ
T7 sequence (Q8R0X7 whole entry): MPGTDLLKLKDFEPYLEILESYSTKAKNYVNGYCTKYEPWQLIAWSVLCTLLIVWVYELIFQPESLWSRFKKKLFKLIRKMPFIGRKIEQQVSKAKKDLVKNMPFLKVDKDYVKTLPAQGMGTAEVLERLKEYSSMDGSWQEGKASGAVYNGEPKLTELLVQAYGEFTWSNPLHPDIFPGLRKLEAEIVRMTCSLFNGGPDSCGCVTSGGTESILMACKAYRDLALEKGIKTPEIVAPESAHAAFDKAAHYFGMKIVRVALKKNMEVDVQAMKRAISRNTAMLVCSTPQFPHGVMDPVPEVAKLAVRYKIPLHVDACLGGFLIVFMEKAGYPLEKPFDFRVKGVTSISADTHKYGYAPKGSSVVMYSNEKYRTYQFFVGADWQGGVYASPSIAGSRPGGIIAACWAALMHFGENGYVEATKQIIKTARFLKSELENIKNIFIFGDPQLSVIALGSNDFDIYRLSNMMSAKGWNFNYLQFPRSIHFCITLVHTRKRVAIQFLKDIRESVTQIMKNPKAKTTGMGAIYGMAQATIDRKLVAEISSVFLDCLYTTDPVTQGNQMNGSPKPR
T10 sequence (Q9DC61 34-524): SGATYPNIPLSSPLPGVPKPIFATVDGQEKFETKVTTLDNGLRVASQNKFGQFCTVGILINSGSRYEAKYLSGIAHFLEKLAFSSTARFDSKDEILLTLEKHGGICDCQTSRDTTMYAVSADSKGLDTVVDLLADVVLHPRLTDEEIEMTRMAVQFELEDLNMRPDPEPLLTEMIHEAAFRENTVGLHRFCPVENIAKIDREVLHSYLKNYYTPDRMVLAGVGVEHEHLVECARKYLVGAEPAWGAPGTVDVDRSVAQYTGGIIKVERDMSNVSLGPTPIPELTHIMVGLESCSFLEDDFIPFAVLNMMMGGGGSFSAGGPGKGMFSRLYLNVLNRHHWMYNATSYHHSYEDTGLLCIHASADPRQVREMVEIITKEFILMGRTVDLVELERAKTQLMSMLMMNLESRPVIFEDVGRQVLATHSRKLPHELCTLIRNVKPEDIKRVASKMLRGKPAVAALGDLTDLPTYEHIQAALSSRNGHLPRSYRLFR
T6 sequence (Q8BKE6 whole entry): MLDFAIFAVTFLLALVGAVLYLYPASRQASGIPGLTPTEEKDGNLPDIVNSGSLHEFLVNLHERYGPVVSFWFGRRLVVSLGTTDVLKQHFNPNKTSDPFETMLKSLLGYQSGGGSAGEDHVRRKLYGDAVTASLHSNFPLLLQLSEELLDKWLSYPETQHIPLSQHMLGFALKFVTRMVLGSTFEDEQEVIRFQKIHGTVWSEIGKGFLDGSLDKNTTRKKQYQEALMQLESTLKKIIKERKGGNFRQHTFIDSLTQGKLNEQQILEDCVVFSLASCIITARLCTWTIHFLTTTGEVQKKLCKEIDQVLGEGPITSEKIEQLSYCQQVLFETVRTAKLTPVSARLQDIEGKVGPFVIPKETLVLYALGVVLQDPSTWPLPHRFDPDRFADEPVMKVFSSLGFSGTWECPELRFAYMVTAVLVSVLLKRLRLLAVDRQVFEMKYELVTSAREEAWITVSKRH
T1 sequence (Q8BWM0 whole entry): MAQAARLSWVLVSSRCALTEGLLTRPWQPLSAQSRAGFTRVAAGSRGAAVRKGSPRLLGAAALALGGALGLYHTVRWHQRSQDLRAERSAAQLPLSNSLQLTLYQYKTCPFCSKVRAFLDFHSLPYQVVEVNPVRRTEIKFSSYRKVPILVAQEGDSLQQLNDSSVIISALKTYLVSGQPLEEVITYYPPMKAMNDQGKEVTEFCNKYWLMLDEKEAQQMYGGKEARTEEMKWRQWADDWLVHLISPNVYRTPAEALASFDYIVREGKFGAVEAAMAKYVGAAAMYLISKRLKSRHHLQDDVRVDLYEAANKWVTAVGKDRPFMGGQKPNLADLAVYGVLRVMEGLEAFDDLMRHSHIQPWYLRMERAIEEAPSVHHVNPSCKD
T8 sequence (P67778 whole entry): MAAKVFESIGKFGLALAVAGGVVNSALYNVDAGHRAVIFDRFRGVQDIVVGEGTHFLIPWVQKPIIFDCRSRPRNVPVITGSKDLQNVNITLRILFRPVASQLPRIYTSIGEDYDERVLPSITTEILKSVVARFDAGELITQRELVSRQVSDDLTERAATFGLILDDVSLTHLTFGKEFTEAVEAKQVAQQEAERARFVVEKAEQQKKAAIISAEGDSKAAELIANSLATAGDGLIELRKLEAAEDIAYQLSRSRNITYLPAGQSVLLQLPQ
T9 sequence (Q78ZA7 whole entry): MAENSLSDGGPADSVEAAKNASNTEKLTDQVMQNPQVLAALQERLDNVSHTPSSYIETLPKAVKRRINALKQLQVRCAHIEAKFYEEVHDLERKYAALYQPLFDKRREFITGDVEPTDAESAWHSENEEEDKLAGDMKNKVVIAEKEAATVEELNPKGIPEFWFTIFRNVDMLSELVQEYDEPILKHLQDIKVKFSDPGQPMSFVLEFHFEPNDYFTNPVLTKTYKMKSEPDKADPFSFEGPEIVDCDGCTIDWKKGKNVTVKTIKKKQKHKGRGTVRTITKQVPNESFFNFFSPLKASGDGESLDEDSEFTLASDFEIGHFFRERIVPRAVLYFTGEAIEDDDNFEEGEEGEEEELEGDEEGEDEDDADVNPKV
T11 sequence (Q9CPU0 whole entry): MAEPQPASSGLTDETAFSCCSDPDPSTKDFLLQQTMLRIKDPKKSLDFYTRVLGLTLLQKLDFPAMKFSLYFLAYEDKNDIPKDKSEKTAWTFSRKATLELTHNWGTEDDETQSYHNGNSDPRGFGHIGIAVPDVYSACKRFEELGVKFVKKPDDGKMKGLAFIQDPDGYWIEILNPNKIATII
T2 sequence (Q99M71 38-224): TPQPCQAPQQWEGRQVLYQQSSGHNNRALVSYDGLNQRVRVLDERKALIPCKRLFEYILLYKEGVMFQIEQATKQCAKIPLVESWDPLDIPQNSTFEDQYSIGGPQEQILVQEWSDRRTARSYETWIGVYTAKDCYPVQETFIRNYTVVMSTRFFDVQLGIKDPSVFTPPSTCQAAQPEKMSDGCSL
T5 sequence (P36536 whole entry): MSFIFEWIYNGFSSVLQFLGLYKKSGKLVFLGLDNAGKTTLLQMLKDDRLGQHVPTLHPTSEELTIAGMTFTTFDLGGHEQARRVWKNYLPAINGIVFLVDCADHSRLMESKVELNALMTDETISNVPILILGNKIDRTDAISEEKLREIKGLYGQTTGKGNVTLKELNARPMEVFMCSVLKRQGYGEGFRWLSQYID
T4 sequence (P08113 22-802): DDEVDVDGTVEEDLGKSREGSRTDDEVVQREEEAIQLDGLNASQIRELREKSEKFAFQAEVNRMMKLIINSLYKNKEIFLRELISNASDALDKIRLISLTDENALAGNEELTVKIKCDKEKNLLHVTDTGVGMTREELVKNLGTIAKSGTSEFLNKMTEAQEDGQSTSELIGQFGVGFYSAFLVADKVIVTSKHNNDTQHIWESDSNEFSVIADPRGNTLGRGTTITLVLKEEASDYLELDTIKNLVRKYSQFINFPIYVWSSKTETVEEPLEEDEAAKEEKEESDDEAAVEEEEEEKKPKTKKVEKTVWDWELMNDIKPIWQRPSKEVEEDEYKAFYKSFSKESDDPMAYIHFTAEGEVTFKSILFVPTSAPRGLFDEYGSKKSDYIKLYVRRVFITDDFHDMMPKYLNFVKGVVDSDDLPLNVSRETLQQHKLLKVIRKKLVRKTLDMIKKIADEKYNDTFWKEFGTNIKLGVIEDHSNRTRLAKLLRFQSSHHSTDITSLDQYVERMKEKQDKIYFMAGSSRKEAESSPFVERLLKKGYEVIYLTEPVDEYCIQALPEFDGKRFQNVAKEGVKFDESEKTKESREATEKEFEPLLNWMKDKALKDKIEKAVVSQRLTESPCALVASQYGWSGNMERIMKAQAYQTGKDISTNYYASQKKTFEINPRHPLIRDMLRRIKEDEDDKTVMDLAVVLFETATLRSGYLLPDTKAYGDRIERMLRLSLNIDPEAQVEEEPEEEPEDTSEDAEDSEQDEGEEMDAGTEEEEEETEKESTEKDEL

On to `C#CCCCC1(CC/C=C\C/C=C\C/C=C\CCCC(=O)NCCO)N=N1` [AEA-DA, (5Z,8Z,11Z)-N-(2-hydroxyethyl)-14-(3-(pent-4-yn-1-yl)-3H-diazirin-3-yl)tetradeca-5,8,11-trienamide], for which the Times observed in [1] is 3; in [2], 3; in assay [3] (AEA-DA-modified peptide TIMM17A Q9Z0V8 13-36, SEQ ID NO 111), 9; in [3] (AEA-DA-modified peptide TIMM17A Q9Z0V8 85-107, SEQ ID NO 112), 4; in assay [4] it was 4; in [5], 6. For the same molecule, the Times observed in assay [6] is reported as 8; in assay [7] (AEA-DA-modified peptide SGPL1 Q8R0X7 9-26, SEQ ID NO 100), 4; in assay [7] (AEA-DA-modified peptide SGPL1 Q8R0X7 519-536, SEQ ID NO 99) it was 12; in assay [8], 2; in assay [9], 3; in assay [10], 7. In [11], the Times observed is 2.
